Results: patent US20040266811A1, “Methods for inducing regeneration, remyelination, and hypermyelination of nervous tissue” (priority 2002, published 2004)
“Also recorded” adds a separate entry of the source.

Legend:
[1] = biological target: T1, full-length FKBP52 (GST fusion protein) (Homo sapiens, UniProt Q02790); test: 3H-FK506 competition assay on bead-immobilized GST-FKBP52; format: binding; settings: 10 nM FK506 with 3H-dihydro-FK506, 200-fold molar excess of cold ligand
T1 construct: GST-FKBP52 was constructed by PCR amplification of full-length FKBP52 from the pcDNA3 vector; made in house; host or cells: bacteria
T1 sequence (Q02790 1-459): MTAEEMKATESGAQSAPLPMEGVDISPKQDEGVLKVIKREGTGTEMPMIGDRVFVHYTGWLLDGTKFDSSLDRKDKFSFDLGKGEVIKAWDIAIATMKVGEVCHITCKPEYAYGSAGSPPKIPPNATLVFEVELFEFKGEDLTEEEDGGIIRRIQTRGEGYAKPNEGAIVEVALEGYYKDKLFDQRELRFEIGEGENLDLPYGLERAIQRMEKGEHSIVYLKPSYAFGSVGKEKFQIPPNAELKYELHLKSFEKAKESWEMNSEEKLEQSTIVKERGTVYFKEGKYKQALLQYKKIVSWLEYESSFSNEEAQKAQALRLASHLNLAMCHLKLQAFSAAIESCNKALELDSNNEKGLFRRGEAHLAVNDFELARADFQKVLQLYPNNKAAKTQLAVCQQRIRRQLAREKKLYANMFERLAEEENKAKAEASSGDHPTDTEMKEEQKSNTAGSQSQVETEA
Method: There was virtually no binding of GST alone to FKBP52 (not shown). […] Full-length FKBP52 was expressed as a GST fusion protein, purified over GSH-Sepharose resin. […] After extensive washing, the bound fraction (gray bars) was determined by liquid scintillation counting. […] Values are averages (with standard deviations) of three independent experiments.
Competition of […] binding to FKBP52 was carried out on GSH Sepharose beads from GST-FKBP52 expressed in bacteria. Briefly, GST-FKBP52 was constructed by PCR amplification of full-length FKBP52 from the pcDNA3 vector (Invitrogen, Carlsbad, Calif.), with FKBP52-specific primers flanked by EcORI/BamH1 restriction endonuclease sites. A 1.4-kb fragment was subsequently ligated into EcORI/BamH1, and digested with CIP-treated pGEX-6p to obtain a GST-fusion protein. The correct reading frame was verified by DNA sequencing. GST-FKBP52 fusion proteins were generated upon induction with 0.1 mM IPTG (from a 500-ml culture), and bacterial lysates were incubated with GSH Sepharose beads (Pharmacia, Peapack, N.J.) to collect FKBP52. Following several washes, first in bacterial lysis buffer and subsequently in PBS, the FKBP52 was over 90% pure, and was used for in vitro competition studies.

[2] = tested on: SCIP and Brn-5 expression in Schwann cells; test: RNA (Northern) blot for SCIP and Brn-5 in Schwann cells; format: cell-based, Sprague-Dawley rats; settings: 1 μM GM-284, 48 h, growth-factor-starved Schwann cells
Method: To further assess the ability of GM-284 to regulate these genes, Schwann cells were maintained in DMEM containing FCS, and without forskolin or GGF, for 48 h, to rest the cells. Thereafter, 1 μM GM-284 was added for an additional 48 h. Total RNA was isolated, run on a denaturing agarose gel, transferred to a nylon filter, and hybridized with probes complimentary to either SCIP (panel a) or Brn-5 (panel b). Cyclophilin RNA was probed as a loading control.
20 μg of total RNA was prepared as previously described (Wu et al., The POU gene brn-5 is induced by neuregulin and is restricted to myelinating Schwann cells. Mol. Cell Neurosci., 17:683-95, 2001). Thereafter, total RNA was separated on 1% MOPS-formaldehyde agarose gels, transferred to MAGNA nylon transfer membrane (MSI), UV cross-linked (120 mJ/cm 2) using a UV crosslinker (FB-UVXL-1000, Fisher Biotech), and hybridized with ^32P-dCTP random-labeled (RTS RadPrime DNA Labeling System, Gibco BRL), probes purified by Sephadex G-50 column (Pharmacia, Peapack, N.J.).
The Brn-5 probe contains the rat Brn-5 coding region (generated by PCR), and was kindly provided by Dr. Bogi Andersen at the University of California at San Diego. This probe is 93% identical to the mouse Brn-5 mRNA. The SCIP probe was a 1.10-kb SmaI cDNA fragment from mouse SCIP DNA. […]

CCC(C)(C)C(=O)C(=O)N1CCC[C@H]1c1nnc([C@@H]2CCCN2C(=O)C(=O)C(C)(C)CC)o1 [GM-284]
competition for binding of 3H-FK506 to immobilized FKBP52 [1]: bind to FKBP52 with similar affinities; also recorded: each ligand is able to compete for binding to the receptor; also recorded: competes with FK506 for binding to full-length FKBP52 | SCIP and Brn-5 RNA expression relative to vehicle-treated cells [2]: significantly induced; also recorded: induces Schwann cell expression of SCIP (Oct-6) and Brn-5
